How the values were obtained:
S. thyphimurium [1] = experiment: BacLight viability staining after exposure to chemical compounds; format: cell-based
Experimental: (§1) For assessment of the survival rate of the bacteria treated with different chemical compounds of the matrix lysis buffer system, 100 μl of an overnight culture was pelleted at 8,000×g for 5 min, re-suspended in 1 ml of the chemical compound of choice, […] shaker (Eppendorf, Germany). The bacterial cells were then washed twice in 1×PBS at 5,000×g and re-suspended in 120 μl 1×PBS. One-hundred it of the suspension was plated onto TSB-Y agar plates (Oxoid). Incubation was performed for 48 h at 37° C. Additionally the Live/Dead® BacLight™ Bacterial Viability Kit (Molecular Probes, USA) was used to examine the condition of the bacteria after the chemical treatments.
(§2) Viability staining was performed using the Live/Dead® BacLight™ Bacterial Viability Kit (Molecular Probes) as prescribed by the manufacturer. Ten fields per filter were analysed, and two filters were prepared for each sample.

B. cereus [2] = experiment: as above; format: cell-based; parameters: key: red: Red colour indicates dead cells; c.r.: Reduced cell count; green: Green colour indicates living cells
Experimental: as §1, §2

E. coli [3] = experiment: as above; format: cell-based; parameters: key: red: Red colour indicates dead cells; c.r.: Reduced cell count; green: Green colour indicates living cells
Experimental: as §1, §2

L. monocytogenes [4] = experiment: as above; format: cell-based; parameters: key: red: Red colour indicates dead cells; c.r.: Reduced cell count; green: Green colour indicates living cells
Experimental: as §1, §2

S. aureus [5] = experiment: as above; format: cell-based; parameters: key: red: Red colour indicates dead cells; c.r.: Reduced cell count; green: Green colour indicates living cells
Experimental: as §1, §2

B. cereus [6] = experiment: plate growth after exposure to chemical compounds; format: cell-based
Experimental: as §1

E. coli [7] = experiment: plate growth after exposure to chemical compounds; format: cell-based
Experimental: as §1

L. monocytogenes [8] = experiment: plate growth after exposure to chemical compounds; format: cell-based
Experimental: as §1

S. aureus [9] = experiment: plate growth after exposure to chemical compounds; format: cell-based
Experimental: as §1

S. thyphimurium [10] = experiment: plate growth after exposure to chemical compounds; format: cell-based
Experimental: as §1

L. monocytogenes [11] = experiment: growth of L. monocytogenes after treatment with compounds of the matrix lysis protocol (Example 1); format: cell-based; details: incubated 2 h at 45 °C in the compound, then plated
Experimental: L. monocytogenes EGDe was used as a DNA quantification standard for real-time PCR and for artificial contamination of food samples. The bacteria were maintained at -80° C. using the MicroBank technology (Pro-Lab Diagnostics, Canada). Listeria were grown in tryptone soy broth with 0.6% ([…]; Oxoid, UK) at 37° C. over night. For artificial contamination of food and viability staining, one milliliter of the over night culture was transferred to one milliliter of fresh medium and incubated at 37° C. for three hours. Plate count method and tryptone soy agar plates supplemented with 0.6% (w/v) yeast extract (TSA-Y; Oxoid, UK) were used for quantification of the pure cultures of L. monocytogenes. The agar plates were incubated at 37° C. for 24 hours. For determination of the survival rate of L. monocytogenes treated with different chemical compounds of the matrix lysis buffer system, 100 μl of an overnight culture of L. monocytogenes was pelleted at 8,000×g for 5 min, resuspended in the chemical compound of choice, and incubated for 2 h at 45° C. and 300 rpm on an Eppendorf shaker (Eppendorf, Germany). Afterwards the bacterial cells were washed twice in 1×PBS at 5,000×g and resuspended in 120 μl 1×PBS. One-hundred μl of the suspension was plated on […] agar plates (Biokar, Beauvais, France). Incubation was performed 48 h at 37° C.

[12] = system: prfA gene of L. monocytogenes (real-time PCR); experiment: inhibitory effects of detergents on real-time PCR; format: biochemical
Experimental: For experiments analysing the effects of food matrices and detergents contained in the matrix lysis buffer on real-time PCR, food matrices were mixed with equal amounts of ddH2O, stomachered for 3 minutes, diluted in a 10-fold dilution series (10^−1, 10^−2 and 10^−3) and 5 μl directly subjected to the real time PCR samples. An aliquot was cooked 15 min at 100° C. for comparison prior to subjection of 5 μl to real-time PCR. Detergents were diluted in 2-fold dilution series (0.4 M-0.05 M Urea and 0.8%-0.005% SDS) and 5 μl were subjected to the real-time PCR samples.
Real-time PCR was performed in an Mx3000p real-time PCR thermocycler (Stratagene, USA). The 25 μl volume contained 20 mM Tris-HCl, 50 mM KCl, 3.5 mM MgCl2. 500 nM of each primer, 250 nM of each probe, 200 μM (each) of dATP, dTTP, dGTP and dCTP, 1.5 U of Platinum Taq DNA polymerase (Invitrogen, Austria), 25 copies of the IAC and […]. Amplification following initial denaturation at 94° C. for 2 min was performed in 45 cycles, at each 94° C. for 15 s and 64° C. for 1 minute.

Gram negative bacteria = experiment: recovery of Gram negative bacteria in matrix lysis; format: cell-based; details: as detergent of the lysis buffer
Experimental: Combinations of five different detergents (Tween 20®, Tween 80®, Triton X-100®; SDS, and Lutensol AO-7), three enzymes (Protease, alpha-amylase and cellulase) and a sucrose buffer (0.25 M sucrose, 1 mM EDTA and 0.05 M Tris, pH 7.6) were compared with respect of their ability to dissolve food matrices (salmon, chicken meat, diary products, ice cream, blood, starch rich foodstuffs, egg and milk) and their effect on the cellular appearance of the bacterial cells. All chemicals used (with the exception of SDS, Sigma-Aldrich, Germany; Lutensol AO-7, BASF, Netherland and Savinase, Novozymes, Denmark) were purchased at Merck (Germany). The matrix lysis protocol is described below.
Matrix lysis was generally performed as described in example 1. Processing meat, fish, chicken and blood or when Gram positive bacteria were targeted, buffer system I (8 M urea, 1% SDS, and 1×PBS) was used. Buffer system II (8 M urea, 1% Lutensol AO-7 and 1×PBS) was used if Gram negative bacteria were targeted and for all other foodstuffs used (Milk, diary products, ice cream, and egg).

For `NC(N)=O` [8 M Urea, urea], the “S. thyphimurium BacLight” value (S. thyphimurium [1]; 37 °C) was “c.r.^b/red”, the “S. thyphimurium BacLight” value (S. thyphimurium [1]; 42 °C) was “c.r./red” and the “S. thyphimurium BacLight” value (S. thyphimurium [1]; 45 °C) was “c.r./red”. The “B. cereus BacLight” value (B. cereus [2]; 37 °C) was “green”, the “B. cereus BacLight” value (B. cereus [2]; 42 °C) was “green” and the “B. cereus BacLight” value (B. cereus [2]; 45 °C) was “green”. For the same molecule, the “E. coli BacLight” value (E. coli [3]; 37 °C) was “red^a”, the “E. coli BacLight” value (E. coli [3]; 42 °C) was “c.r./red” and the “E. coli BacLight” value (E. coli [3]; 45 °C) was “c.r./red”. For the same molecule, the “L. monocytogenes BacLight” value (L. monocytogenes [4]; 37 °C) was “green^c”, the “L. monocytogenes BacLight” value (L. monocytogenes [4]; 42 °C) was “green” and the “L. monocytogenes BacLight” value (L. monocytogenes [4]; 45 °C) was “green”. The “S. aureus BacLight” value (S. aureus [5]; 37 °C) was “green”, the “S. aureus BacLight” value (S. aureus [5]; 42 °C) was “green” and the “S. aureus BacLight” value (S. aureus [5]; 45 °C) was “green”. For the same molecule, the “B. cereus Plate growth” value (B. cereus [6]; 37 °C) was “pos”, the “B. cereus Plate growth” value (B. cereus [6]; 42 °C) was “pos” and the “B. cereus Plate growth” value (B. cereus [6]; 45 °C) was “pos”. The “E. coli Plate growth” value (E. coli [7]; 37 °C) was “neg”, the “E. coli Plate growth” value (E. coli [7]; 42 °C) was “neg” and the “L. monocytogenes Plate growth” value (L. monocytogenes [8]; 37 °C) was “pos”. The “L. monocytogenes Plate growth” value (L. monocytogenes [8]; 42 °C) was “pos”, the “L. monocytogenes Plate growth” value (L. monocytogenes [8]; 45 °C) was “pos” and the “S. aureus Plate growth” value (S. aureus [9]; 37 °C) was “pos”. The “S. aureus Plate growth” value (S. aureus [9]; 42 °C) was “pos”, the “S. aureus Plate growth” value (S. aureus [9]; 45 °C) was “pos” and the “S. thyphimurium Plate growth” value (S. thyphimurium [10]; 37 °C) was “neg”. For the same molecule, the “S. thyphimurium Plate growth” value (S. thyphimurium [10]; 42 °C) was “neg”, the “S. thyphimurium Plate growth” value (S. thyphimurium [10]; 45 °C) was “neg” and the “growth of L. monocytogenes on TSY agar after treatment” value (L. monocytogenes [11]) was “able to grow”. For the same molecule, the “inhibitory effect on real-time PCR” value ([12]; urea 0.4 M and 0.2 M, 15.5 copies of the target) was “total inhibition” and the “inhibitory effect on real-time PCR” value ([12]; urea 0.4 M, 1,550 copies of the target) was “total inhibition”.

In the case of `CCCCCCCCCCCCOS(=O)(=O)[O-].[Na+]` [1% SDS, sodium dodecyl sulfate], the “growth of L. monocytogenes on TSY agar after treatment” value (L. monocytogenes [11]) is reported as “Complete inhibition of growth”, the “inhibitory effect on real-time PCR” value ([12]; SDS 0.8% to 0.005%, 15.5 and 1,550 copies/PCR) is reported as “no amplification” and the “recovery of Gram negative bacteria” value (Gram negative bacteria) is reported as “decreasing the recovery”.

From patent publication US9328326B2, “Method for isolating cells” (MERCK PATENT GMBH, priority 2006, dated 2016)
